Values quoted from earlier work in patent US5952383A, “Pharmaceutical composition for oral delivery” (Negma-Steba International Development N.V., priority 1996, dated 1999).
Counter-ions that a name gives are not always drawn.

Assays:
[1] = oral

Structure (SMILES)	solubility in carbonate solutions and in tetrahydrofuran (carbonate solutions and tetrahydrofuran)	solubility in water and in alcohols (water and alcohols)	solubility in water and ethanol (water and ethanol)	absorption by the digestive tract [1]	undesirable side effects ([1]; on account of incomplete absorption)	solubility in water (water, EP-A-243,968)
CC(=O)Oc1cccc2c1C(=O)c1c(OC(C)=O)cc(C(=O)O)cc1C2=O [diacerein, diacetylrhein]	sparingly soluble	virtually insoluble	virtually insoluble	not totally absorbed	laxative effects	
CC(=O)Oc1cccc2c1C(=O)c1c(OC(C)=O)cc(C(=O)O)cc1C2=O [potassium salt of diacerein]						water-soluble
